These results are taken from article PMC11683478, “Bioprospecting of culturable marine biofilm bacteria for novel antimicrobial peptides” (iMeta, 2024).

The subject of data set [1] is Acinetobacter baumannii ATCC 19606. In words: Antibacterial screen at 200 μg/mL (cell density vs control). The format is cell-based. The conditions noted are these: peptide 200 μg/mL, CAMHB, 5 × 10^5 CFU/mL, 37°C, 12 h, OD600; control (no AMP) = 1; three biological replicates. How it is done:
(§1) Eight bacterial strains were utilized in the antibacterial experiment. S. aureus ATCC 12600, B. subtilis ATCC 23857, E. coli ATCC 11775, and A. baumannii ATCC 19606 were purchased from Shanghai Beinuo Biology. M. luteus ATCC 4698 and S. bongori ATCC43975 were purchased from Shanghai Beisi Biotechnology. V. owensii ems001 and V. alginolyticus xv22 from the intestines of diseased shrimps were isolated in our laboratory. All strains were cultured in the cation‐adjusted Mueller‐Hinton broth (CAMHB) at 37°C to the logarithmic growth phase (OD600 = 0.5). Then, bacteria were gradient‐diluted using fresh CAMHB to a bacterial density of 5 × 10^5 CFU/mL. Antibacterial experiments were performed in a 96‐well plate with 200 μg/mL final peptide concentration. Four experimental groups were set up, including a blank control (200 μL CAMHB), a negative control (180 μL CAMHB plus 20 μL peptide), a positive control (180 μL bacterial culture plus 20 μL ultrapure water), and an experimental group (180 μL bacterial culture plus 20 μL peptide). Three biological replicates were conducted for each group, and OD600 values were measured after incubation at 37°C for 12 h. Every observed value was removed from the blank control group value. The value of the experimental group was then subtracted from the value of the negative control group therefore eradicating the effect of the peptide on the OD measurement. Student's t‐test allowed the estimation of a notable variation between the experimental and positive groups using a p‐value of 0.05 as the limit. […] The MIC of a peptide against a bacterium was determined as the minimum peptide concentration at which there was no visible bacterial growth.

The test system of data set [2] is Bacillus subtilis ATCC 23857. The description is as above. It is filed as cell-based. The following applies: peptide 200 μg/mL, CAMHB, 5 × 10^5 CFU/mL, 37°C, 12 h, OD600; control (no AMP) = 1; three biological replicates. How it is done:
as §1

For data set [3], the system named is Escherichia coli ATCC 11775. The data set is described as above. It is filed as cell-based. The conditions noted are these: peptide 200 μg/mL, CAMHB, 5 × 10^5 CFU/mL, 37°C, 12 h, OD600; control (no AMP) = 1; three biological replicates. The protocol:
as §1

Data set [4] deals with Micrococcus luteus ATCC 4698. The description is as above. It is filed as cell-based. The conditions noted are these: peptide 200 μg/mL, CAMHB, 5 × 10^5 CFU/mL, 37°C, 12 h, OD600; control (no AMP) = 1; three biological replicates. The protocol: as §1
In data set [5] the test system is Salmonella bongori ATCC 43975. The data set is described as above. The format is cell-based. The following applies: peptide 200 μg/mL, CAMHB, 5 × 10^5 CFU/mL, 37°C, 12 h, OD600; control (no AMP) = 1; three biological replicates. How it is done:
as §1

Data set [6] concerns Staphylococcus aureus ATCC 12600. Described as above. The format is cell-based. The following applies: peptide 200 μg/mL, CAMHB, 5 × 10^5 CFU/mL, 37°C, 12 h, OD600; control (no AMP) = 1; three biological replicates. The protocol: as §1
In data set [7] the test system is Vibrio alginolyticus xv22. The data set is described as above. It is filed as cell-based. The conditions noted are these: peptide 200 μg/mL, CAMHB, 5 × 10^5 CFU/mL, 37°C, 12 h, OD600; control (no AMP) = 1; three biological replicates. The protocol: as §1
A further data set has as its system Vibrio owensii ems001. The data set is described as above. The format is cell-based. The following applies: peptide 200 μg/mL, CAMHB, 5 × 10^5 CFU/mL, 37°C, 12 h, OD600; control (no AMP) = 1; three biological replicates. How it is done:
as §1

A further data set deals with sheep red blood cells. The following applies: red cells of sheep, 1 h.

Where no end group is shown, it is not given here.

Protocol for sheep red blood cells: Freshly collected sheep blood was centrifuged at 3000 rpm for 10 min, and the supernatant was removed. The pellet was washed and resuspended with normal saline water to produce a 2% blood cell solution. Then, 400 μL of peptide solution was added to 100 μL of 2% blood cell solution to achieve final peptide concentrations of 8, 16, 32, 64, and 128 μg/mL. Normal saline water and Triton X‐100 normal saline solution (2%) were used as negative and positive controls, respectively. The samples were incubated in a water bath at 37°C for 1 h, followed by centrifugation at 3000 rpm for 10 min. Then, 200 μL of the supernatant was transferred to a 96‐well plate, and OD values were measured at a wavelength of 545 nm. The hemolysis rate of each sample was calculated using the following formula: Hemolysis ratio=OD545(experimental)−OD545(negative control)/OD545(positive control)−OD545(negative control)×100%.

As to “MAWISTRIACCCSTRLRRRIRTCSTSFCR [Cand-218, chemically synthesized candidate AMP predicted from marine biofilm bacteria]”, the “cell density relative to control, A. baumannii ATCC 19606” value in data set [1] was found to be 0.029. Moreover, in data set [2], the “cell density relative to control, B. subtilis ATCC 23857” value worked out at 0.004. For the same sequence, the “cell density relative to control, E. coli ATCC 11775” value in data set [3] was found to be 0.021. Moreover, the “cell density relative to control, M. luteus ATCC 4698” value in data set [4] is 0.052. In addition, the “cell density relative to control, S. bongori ATCC 43975” value in data set [5] is 0.938. In [6], the “cell density relative to control, S. aureus ATCC 12600” value is 0. Further, in data set [7], the “cell density relative to control, V. alginolyticus xv22” value was 0.049. For the same sequence, the “cell density relative to control, V. owensii ems001” value in the data set with Vibrio owensii ems001 was 0.001.

Turning to “MCALKWFCKSLIRALNKAT [Cand-68, chemically synthesized candidate AMP predicted from marine biofilm bacteria]”, in [1], the “cell density relative to control, A. baumannii ATCC 19606” value worked out at 0. In addition, the “cell density relative to control, B. subtilis ATCC 23857” value in [2] came out at 0. For the same sequence, in [3], the “cell density relative to control, E. coli ATCC 11775” value is recorded as 0. In addition, the “cell density relative to control, M. luteus ATCC 4698” value in [4] turned out to be 0.001. Besides, the “cell density relative to control, S. bongori ATCC 43975” value in data set [5] is on record as 0.024. Besides, the “cell density relative to control, S. aureus ATCC 12600” value in data set [6] is 0. For the same sequence, in [7], the “cell density relative to control, V. alginolyticus xv22” value was found to be 0.012. Further, the “cell density relative to control, V. owensii ems001” value with Vibrio owensii ems001 came to 0.

Turning to “MCCVGRGVSFLRTRKCFIKS [Cand-161, chemically synthesized candidate AMP predicted from marine biofilm bacteria]”, in data set [1], the “cell density relative to control, A. baumannii ATCC 19606” value stood at 0.543. Also, the “cell density relative to control, B. subtilis ATCC 23857” value in data set [2] is listed as 0. For the same sequence, the “cell density relative to control, E. coli ATCC 11775” value in data set [3] is given as 0. In addition, the “cell density relative to control, M. luteus ATCC 4698” value in [4] was 0.788. Also, the “cell density relative to control, S. bongori ATCC 43975” value in data set [5] came to 0.12. Also, the “cell density relative to control, S. aureus ATCC 12600” value in data set [6] amounted to 0.001. For the same sequence, in data set [7], the “cell density relative to control, V. alginolyticus xv22” value worked out at 0. In the data set with Vibrio owensii ems001, the “cell density relative to control, V. owensii ems001” value is 0.

Regarding MLTWLKKLQPYLISMMR [Cand-44], in the data set on sheep red blood cells, the “Hemolysis ratio (%) at 8μg/mL” value is reported as 3.540%, the “Hemolysis ratio (%) at 16μg/mL” value worked out at 1.775%, the “Hemolysis ratio (%) at 32μg/mL” value worked out at 3.660% and the “Hemolysis ratio (%) at 64μg/mL” value came out at 5.713%. In addition, the “Hemolysis ratio (%) at 128μg/mL” value in the data set with sheep red blood cells is given as 19.067%.

Regarding MRPKKWLKKPKPRPKKWPTK [Cand-210], in the data set on sheep red blood cells, the “Hemolysis ratio (%) at 8μg/mL” value worked out at 0.520%, the “Hemolysis ratio (%) at 16μg/mL” value is recorded as 0.079%, the “Hemolysis ratio (%) at 32μg/mL” value came to 0.689% and the “Hemolysis ratio (%) at 64μg/mL” value is given as 1.792%.

Consider MSPCLKGVIRSAVKSLHR [Cand-53], for which, in the data set with sheep red blood cells, the “Hemolysis ratio (%) at 8μg/mL” value turned out to be 2.990%, the “Hemolysis ratio (%) at 16μg/mL” value was found to be 2.497%, the “Hemolysis ratio (%) at 32μg/mL” value was found to be 3.703% and the “Hemolysis ratio (%) at 64μg/mL” value was determined as 3.585%.

Turning to MSPIRAWRRLRSC [Cand-144], in the data set with sheep red blood cells, the “Hemolysis ratio (%) at 8μg/mL” value was 1.328%, the “Hemolysis ratio (%) at 16μg/mL” value worked out at 1.615%, the “Hemolysis ratio (%) at 32μg/mL” value amounted to 1.536% and the “Hemolysis ratio (%) at 64μg/mL” value stood at 3.230%. The “Hemolysis ratio (%) at 128μg/mL” value in the data set on sheep red blood cells amounted to 10.013%.

Consider MWIRLTKRLRKSRSNR [Cand-214], for which, in the data set with sheep red blood cells, the “Hemolysis ratio (%) at 8μg/mL” value was determined as 1.812%, the “Hemolysis ratio (%) at 16μg/mL” value was found to be 2.604%, the “Hemolysis ratio (%) at 32μg/mL” value is reported as 3.258% and the “Hemolysis ratio (%) at 64μg/mL” value is given as 3.738%.

Turning to MWPLSKLWPSCFRKTT [Cand-5], in the data set with sheep red blood cells, the “Hemolysis ratio (%) at 8μg/mL” value turned out to be 2.350%, the “Hemolysis ratio (%) at 16μg/mL” value is 1.575%, the “Hemolysis ratio (%) at 32μg/mL” value came to 0.874% and the “Hemolysis ratio (%) at 64μg/mL” value is listed as 7.118%.
